Converted amounts (≈) assume the structure as drawn.
Tests used:
Influenza B virus [1] = experiment: Antiviral activity against influenza B virus assessed as inhibition of viral induced cytopathic effect; format: functional, organism-based
Influenza B virus [2] = experiment: Antiviral activity against influenza B virus assessed as cell viability by cell based MTS assay; format: functional, organism-based
Influenza A virus [3] = experiment: Antiviral activity against influenza A virus H1N1 assessed as inhibition of viral induced cytopathic effect; format: functional, organism-based
Influenza A virus [4] = experiment: Antiviral activity against Influenza A virus H3N2 assessed as cell viability by cell based MTS assay; format: functional, organism-based
Influenza A virus [5] = experiment: Antiviral activity against Influenza A virus H3N2 assessed as inhibition of viral induced cytopathic effect; format: functional, organism-based
[6] = test system: Staphylococcus epidermidis; experiment: Antibacterial activity against biofilm positive Staphylococcus epidermidis ATCC 35984; format: functional
Enterococcus faecalis [7] = experiment: Antibacterial activity against vancomycin and teicoplanin-resistant Enterococcus faecalis 15376 expressing VanA gene by broth microdilution method; format: functional
Staphylococcus aureus [8] = experiment: Antibacterial activity against methicillin-[…] Staphylococcus aureus ATCC 29213 by broth microdilution method; format: functional
[9] = test system: Staphylococcus epidermidis; experiment: Antibacterial activity against Staphylococcus epidermidis by broth microdilution method; format: functional
Influenza A virus [10] = experiment: Antiviral activity against influenza A virus H1N1 assessed as cell viability by cell based MTS assay; format: functional, organism-based
Enterococcus faecalis [11] = experiment: Antibacterial activity against vancomycin-resistant and teicoplanin-sensitive Enterococcus faecalis ATCC 5129 expressing VanB gene by broth microdilution method; format: functional
Bacillus subtilis = experiment: Antibacterial activity against Bacillus subtilis ATCC 6633 by broth microdilution method; format: functional
Enterococcus faecalis [12] = experiment: Antibacterial activity against vancomycin and teicoplanin-sensitive Enterococcus faecalis ATCC 29212 by broth microdilution method; format: functional
Staphylococcus aureus [13] = experiment: Antibacterial activity against methicillin-[…] Staphylococcus aureus ATCC 33591 by broth microdilution method; format: functional

| SMILES | EC50 (Influenza B virus [1]) | EC50 (Influenza B virus [2]) | EC50 (Influenza A virus [3]) | EC50 (Influenza A virus [4]) | EC50 (Influenza A virus [5]) | MBC [6] | MIC [6] | MBC (Enterococcus faecalis [7]) | MIC (Enterococcus faecalis [7]) | MBC (Staphylococcus aureus [8]) | MIC (Staphylococcus aureus [8]) | MBC [9] | MIC [9] | EC50 (Influenza A virus [10]) | MBC (Enterococcus faecalis [11]) | MIC (Enterococcus faecalis [11]) | MBC (Bacillus subtilis) | MIC (Bacillus subtilis) | MBC (Enterococcus faecalis [12]) | MIC (Enterococcus faecalis [12]) | other results |
| --- | --- | --- | --- | --- | --- | --- | --- | --- | --- | --- | --- | --- | --- | --- | --- | --- | --- | --- | --- | --- | --- |
| COC(=O)[C@H]1NC(=O)[C@H]2NC(=O)[C@H](NC(=O)[C@@H]3NC(=O)[C@H]4NC(=O)[C@H](NC(=O)[C@H](N=[N+]=[N-])c5ccc(O)c(c5)Oc5cc4cc(O)c5C)[C@H](O)c4ccc(cc4)Oc4cc3cc(c4O)Oc3ccc(cc3)[C@H]2O)c2ccc(O)c(c2)-c2c(O)cc(O)cc21 | > 100 µM | > 100 µM | 9.5 µM | ≥ 9 µM | ≥ 20 µM |  |  |  |  |  |  |  |  |  |  |  |  |  |  |  |  |
| COC(=O)[C@@H]1NC(=O)[C@H]2NC(=O)[C@H](NC(=O)[C@@H]3NC(=O)[C@H]4NC(=O)[C@H](NC(=O)[C@H](n5cc(CO[C@H]6O[C@H](COC(C)=O)[C@@H](OC(C)=O)[C@H](OC(C)=O)[C@H]6OC(C)=O)nn5)c5ccc(O)c(c5)Oc5cc4cc(O)c5C)[C@H](O)c4ccc(cc4)Oc4cc3cc(c4O)Oc3ccc(cc3)[C@H]2O)c2ccc(O)c(c2)-c2c(O)cc(O)cc21 | > 100 µM | > 100 µM | 9.5 µM | > 100 µM | > 100 µM | 16 µg/mL (≈ 10.1 µM) | 8 µg/mL (≈ 5.04 µM) | 256 µg/mL (≈ 161 µM) | 8 µg/mL (≈ 5.04 µM) | 8 µg/mL (≈ 5.04 µM) | 4 µg/mL (≈ 2.52 µM) | 16 µg/mL (≈ 10.1 µM) | 16 µg/mL (≈ 10.1 µM) | 8.2 µM | 256 µg/mL (≈ 161 µM) | 16 µg/mL (≈ 10.1 µM) | 16 µg/mL (≈ 10.1 µM) | 8 µg/mL (≈ 5.04 µM) | 256 µg/mL (≈ 161 µM) | 8 µg/mL (≈ 5.04 µM) | MBC (Staphylococcus aureus [13]): 8 µg/mL (≈ 5.04 µM); MIC (Staphylococcus aureus [13]): 4 µg/mL (≈ 2.52 µM) |
| COC(=O)[C@@H]1NC(=O)[C@H]2NC(=O)[C@H](NC(=O)[C@@H]3NC(=O)[C@H]4NC(=O)[C@H](NC(=O)[C@H](n5cc(CO[C@H]6O[C@H](COC(C)=O)[C@@H](OC(C)=O)[C@H](OC(C)=O)[C@@H]6OC(C)=O)nn5)c5ccc(O)c(c5)Oc5cc4cc(O)c5C)[C@H](O)c4ccc(cc4)Oc4cc3cc(c4O)Oc3ccc(cc3)[C@H]2O)c2ccc(O)c(c2)-c2c(O)cc(O)cc21 | > 100 µM | > 100 µM | 4 µM | > 100 µM | > 100 µM | 4 µg/mL (≈ 2.52 µM) | 4 µg/mL (≈ 2.52 µM) | 128 µg/mL (≈ 80.7 µM) | 2 µg/mL (≈ 1.26 µM) | 4 µg/mL (≈ 2.52 µM) | 2 µg/mL (≈ 1.26 µM) | 4 µg/mL (≈ 2.52 µM) | 2 µg/mL (≈ 1.26 µM) | 5 µM | 256 µg/mL (≈ 161 µM) | 8 µg/mL (≈ 5.04 µM) | 8 µg/mL (≈ 5.04 µM) | 4 µg/mL (≈ 2.52 µM) | 128 µg/mL (≈ 80.7 µM) | 4 µg/mL (≈ 2.52 µM) | MBC (Staphylococcus aureus [13]): 4 µg/mL (≈ 2.52 µM); MIC (Staphylococcus aureus [13]): 2 µg/mL (≈ 1.26 µM) |
| COC(=O)[C@@H]1NC(=O)[C@H]2NC(=O)[C@H](NC(=O)[C@@H]3NC(=O)[C@H]4NC(=O)[C@H](NC(=O)[C@H](n5cc(CO[C@H]6O[C@H](COC(C)=O)[C@@H](OC(C)=O)[C@H](OC(C)=O)[C@H]6NC(C)=O)nn5)c5ccc(O)c(c5)Oc5cc4cc(O)c5C)[C@H](O)c4ccc(cc4)Oc4cc3cc(c4O)Oc3ccc(cc3)[C@H]2O)c2ccc(O)c(c2)-c2c(O)cc(O)cc21 | > 100 µM | > 100 µM | 8 µM | > 100 µM | > 100 µM | 8 µg/mL (≈ 5.05 µM) | 8 µg/mL (≈ 5.05 µM) | 256 µg/mL (≈ 161 µM) | 2 µg/mL (≈ 1.26 µM) | 256 µg/mL (≈ 161 µM) | 0.5 µg/mL (≈ 0.315 µM) | 4 µg/mL (≈ 2.52 µM) | 4 µg/mL (≈ 2.52 µM) | 5.8 µM | 256 µg/mL (≈ 161 µM) | 4 µg/mL (≈ 2.52 µM) | 8 µg/mL (≈ 5.05 µM) | 2 µg/mL (≈ 1.26 µM) | 256 µg/mL (≈ 161 µM) | 4 µg/mL (≈ 2.52 µM) | MBC (Staphylococcus aureus [13]): 64 µg/mL (≈ 40.4 µM); MIC (Staphylococcus aureus [13]): 1 µg/mL (≈ 0.631 µM) |
| Cc1c(O)cc2cc1Oc1cc(ccc1O)[C@@H](N)C(=O)N[C@H]1C(=O)N[C@@H]2C(=O)N[C@H]2C(=O)N[C@H]3C(=O)N[C@H](C(=O)N[C@@H](C(=O)O)c4cc(O)cc(O[C@H]5O[C@H](CO)[C@@H](O)[C@H](O)[C@@H]5O)c4-c4cc3ccc4O)[C@H](O[C@H]3C[C@@H](N)[C@@H](O)[C@H](C)O3)c3ccc(cc3)Oc3cc2cc(c3O[C@H]2O[C@@H](CO[C@H]3O[C@H](C)[C@@H](O)[C@H](O)[C@@H]3O)[C@H](O)[C@@H](O)[C@@H]2O[C@H]2O[C@H](CO)[C@@H](O)[C@H](O)[C@@H]2O[C@H]2O[C@H](CO)[C@@H](O)[C@@H]2O)Oc2ccc(cc2)[C@H]1O [RISTOCETIN] |  |  |  |  |  | 64 µg/mL (≈ 31.2 µM) | 32 µg/mL (≈ 15.6 µM) | 256 µg/mL (≈ 125 µM) | 128 µg/mL (≈ 62.3 µM) | 64 µg/mL (≈ 31.2 µM) | 16 µg/mL (≈ 7.79 µM) | 16 µg/mL (≈ 7.79 µM) | 16 µg/mL (≈ 7.79 µM) |  | 256 µg/mL (≈ 125 µM) | 128 µg/mL (≈ 62.3 µM) | 4 µg/mL (≈ 1.95 µM) | 2 µg/mL (≈ 0.974 µM) | 256 µg/mL (≈ 125 µM) | 4 µg/mL (≈ 1.95 µM) | MBC (Staphylococcus aureus [13]): 64 µg/mL (≈ 31.2 µM); MIC (Staphylococcus aureus [13]): 16 µg/mL (≈ 7.79 µM) |
| COC(=O)[C@@H]1NC(=O)[C@H]2NC(=O)[C@H](NC(=O)[C@@H]3NC(=O)[C@H]4NC(=O)[C@H](NC(=O)[C@H](n5cc(CO[C@@H]6O[C@@H](C)[C@H](OC(C)=O)[C@@H](OC(C)=O)[C@H]6OC(C)=O)nn5)c5ccc(O)c(c5)Oc5cc4cc(O)c5C)[C@H](O)c4ccc(cc4)Oc4cc3cc(c4O)Oc3ccc(cc3)[C@H]2O)c2ccc(O)c(c2)-c2c(O)cc(O)cc21 | > 100 µM | > 100 µM | > 100 µM | > 100 µM | > 100 µM | 4 µg/mL (≈ 2.62 µM) | 4 µg/mL (≈ 2.62 µM) | 256 µg/mL (≈ 167 µM) | 16 µg/mL (≈ 10.5 µM) | 32 µg/mL (≈ 20.9 µM) | 16 µg/mL (≈ 10.5 µM) | 8 µg/mL (≈ 5.23 µM) | 4 µg/mL (≈ 2.62 µM) | > 100 µM | 256 µg/mL (≈ 167 µM) | 128 µg/mL (≈ 83.7 µM) | 32 µg/mL (≈ 20.9 µM) | 32 µg/mL (≈ 20.9 µM) | 256 µg/mL (≈ 167 µM) | 32 µg/mL (≈ 20.9 µM) | MBC (Staphylococcus aureus [13]): 32 µg/mL (≈ 20.9 µM); MIC (Staphylococcus aureus [13]): 16 µg/mL (≈ 10.5 µM) |
| CCOC(=O)C1=C[C@@H](OC(CC)CC)[C@H](NC(C)=O)[C@@H](N)C1 [OSELTAMIVIR] | 23 µM | 27 µM | 12 µM | 38 µM | 32 µM |  |  |  |  |  |  |  |  | 11 µM |  |  |  |  |  |  |  |

— ChEMBL document CHEMBL1158551, “Click reaction synthesis of carbohydrate derivatives from ristocetin aglycon with antibacterial and antiviral activity” (Bioorg Med Chem Lett, 2010)
